Consider one compound from patent US20150238617A1, “SILK RESERVOIRS FOR SUSTAINED DELIVERY OF ANTI-CANCER AGENTS” (TUFTS UNIVERSITY, priority 2012, published 2015).

A word on the half-life: it is the time in which the quantity being followed falls by half. The pKa is the negative logarithm of the acid dissociation constant.

Data set [1] can be described thus: in vivo pharmacokinetics, plasma anastrozole by LC-MS/MS. The arrangement: species or system female Sprague-Dawley rats. The procedure:
A 91-day pharmacokinetic study was conducted on female Sprague-Dawley rats (≧250 g). Test article animals were dosed by a single rod implantation, while positive drug control animals were dosed by a single injection of an ethanol:water (3:7, v/v) solution of equivalent dose. Prior to dosing, all animals were anesthetized by intraperitoneal injection of a cocktail containing ketamine HCl (75 mg/kg) and Xylazine HCl (5 mg/kg). Following anesthesia, the dorsal surface of all animals were shaved and prepared for aseptic administration by wiping with betadine and 70% isopropyl alcohol (3 times each). Animals were placed on a sterile surgical field and covered with Steridrape™. Dosing sites were closed with wound clips. The administration site was circled with indelible ink for future identification of location. Following dosing, all animals were placed in a warmed recovery area and observed until recovered from anesthesia and ambulatory. All animals were observed throughout dosing and each scheduled collection. Body weights were collected weekly in addition to the pre-dose body weight during the duration of the study. Serial blood samples were collected via tail vein or jugular vein at pre-dose, 2 h, 6 h, 24 h (1 d), 2 d, 4 d, 7 d, 10 d, 14 d, 21 d, 28 d, 35 d, 42 d, 49 d, 56 d, 63 d, 70 d, 77 d, 84 d and 91 d and analyzed via LC-MS/MS. Blood samples were stored on wet ice until processed to plasma by centrifugation within 30 min of collection. Plasma were stored at −80° C. until LC-MS/MS analysis.
Briefly, 150 μl of frozen in vivo sample or blank plasma (for double blank, blank and standards) was completely thawed and briefly centrifuged (2000 G, 3 min, 4° C.). […] For extraction, 1 ml diethyl ether:dichloromethane (7:3, v/v) was added to 25 μl of plasma (blank, standard or sample) and 10 μl of aqueous internal standard (100 ng/ml Chlorpheniramine) or deionized water (for double blank) in a glass centrifuge tube using glass serological pipettes and vortexed for 40 s. […]
The auto-sampler of the LC system was kept at 5° C. […] The limit of quantitation (LOQ) was 0.6 ng/ml.

For data set [2] the following is noted: cited from earlier work.
For data set [3] the following is noted: cited from earlier work. This is another data set of the same source.
The conditions of data set [4]: cited from earlier work. The source holds these as a separate data set.
Data set [5] can be described thus: effective steady state diffusion coefficient from cylindrical silk reservoir. To be noted: anastrozole diffusion in silk reservoir rods. Format: physicochemical. An excerpt: and different effective length, le values of 10 or 30 mm.
For data set [6] the following is noted: cited from earlier work. This is another data set of the same source.
Data set [7] in a line: stability of anastrozole under in vitro release conditions (LC-MS/MS). To be noted: deionized water, 0.02 wt. % NaN3, 37° C., longest inter-sampling duration 1 week.
Protocol: The release volume was determined to ensure perfect sink conditions in case of a complete burst release according to:
where V, L and S are the release volume, drug loading and aqueous solubility, respectively. At pre-determined time points, 1 ml of the release medium was sampled. After each sampling, the whole medium was exchanged with fresh buffer.

≈ marks a conversion by molar mass, not a printed value.

For the compound `CC(C)(C#N)c1cc(Cn2cncn2)cc(C(C)(C)C#N)c1` [anastrozole], the half-life in data set [1] (female, Sprague-Dawley, rat, plasma, sc, single s.c. injection of solution, high and low dose, read-out: apparent terminal elimination half-life (converted)) is roughly 6 h. Besides, the “time of peak plasma concentration” value in data set [1] (single s.c. injection of solution (water:ethanol 7:3), high (14 mg) and low (5.8 mg) dose) is 6 h. The “time to decline to background plasma levels” value in data set [1] (single s.c. injection of solution, high and low dose) is reported as no more than 96 h. For the same compound, the “log P(octanol/water)” value in data set [2] was 1.58. For the same compound, in data set [3] (at 25° C.), the water solubility was 500 µg/mL (≈ 1700 µM). For the same compound, the “aqueous solubility Cs of anastrozole in water” value in data set [3] (value used in diffusion equation) was 5000 µg/mL. Further, in data set [4] (Product Monograph value), the “terminal elimination half-life t1/2” value is reported as 50 h and the “volume of distribution V” value is 74 L. The “steady state plasma concentration Css” value in data set [4] (factors in reported accumulation) was 25 ng/mL. In data set [5], the “effective steady state diffusion coefficient De” value is listed as 2.4×10^−8 cm^2/s. In data set [6], the pKa was 1.4. Moreover, the “degradation of Anastrozole under release conditions” value in data set [7] is listed as “No significant degradation”.
